In one series the target is T1, KAT6A (Homo sapiens, UniProt Q92794).
T1 construct: purchased ACTIVE MOTIF 81223
Put plainly: Inhibition of human KAT enzymes, radioisotope method: KAT6A. It counts as biochemical. The settings on record: KAT6A (488-778). An excerpt: (§1) Test Example 2: Selective Inhibitory Effects of Test Compounds on Human KAT6 Enzymes (Radioisotope Method)
(§2) • 1. KAT6A (ACTIVE MOTIF, Cat. No. 81223) • 2. KAT5 (BPS, Cat. No. 79422) • 3. KAT7 (ACTIVE MOTIF, Cat. No. 31889) • 4. KAT6B (ACTIVE MOTIF, Cat. No. 81224) • 5. Acetyl coenzyme A, [Acetyl-^3H, 250 μCi (9.25 MBq](PEIRKIN4 ELMER, Cat. No. NET290250UC) • 6. Acetyl coenzyme A (CAYMVAN, Cat. No. 16160) • 7. 384-well Flashplate (Perkin Elmer, Cat. No. SMP410A001PK) • 8. Garcinol (MCE, Cat. No. HY-107569) • 9. Automatic microplate pipetting system (Precision, PRC384U, BioTek) • 10. Ultrasonic nanoliter liquid handling system (Echo 650 Liquid Handler, Echo 650, Labcyte) • 11. Centrifuge (Avanti J-15R, Beckman Coulter) • 12. Liquid scintillation counter (Microplate Counter, Microbeta2, Perkin Elmer)
(§3) • 1. For KAT6A and KAT7, a 1× assay buffer was prepared as follows: 10 mM Tris-HCl pH 8.0, 0.01% Tween-20, and 1 mM DTT; for KAT6B and KAT5, a 1× assay buffer was prepared as follows: 50 mM Tris-HCl pH 8.0, 0.05% Tween-20, and 1 mM DTT. • 2. Compound preparation: For KAT6A, KAT6B, and KAT7, the final concentration of the compounds started at 1 μM, followed by a 5-fold serial dilution across a total of 7 concentration gradients; for KAT5, the final concentration of the compounds started at 10 μM, followed by a 5-fold serial dilution across a total of 7 concentration gradients. • 3. Substrate reaction solution preparation: The mixed substrates of H4 peptide and [3H]acetyl coenzyme A at final concentrations were prepared using the respective 1× assay buffers, as shown in Table 4.
(§4) • 1. The enzyme solution was transferred to 384-well reaction plates at 10 μL/well. For each negative control well, 10 μL of the 1× assay buffer was transferred. The plates were then centrifuged at 1000 RPM for 1 min and incubated at room temperature for 15 min. • 2. The substrate reaction solution was added at 10 μL/well, and the plates were centrifuged at 1000 RPM for 1 min to start the reaction. • 3. The samples for KAT6A, KAT6B, KAT7, KAT8, and KAT5 were then incubated at room temperature for 60 min, 120 min, 45 min, 60 min, and 120 min, respectively. • 4. Stop solution preparation: A stop solution was prepared by diluting 50 µM cold Ac-CoA in 1× buffer. • 5. The stop solution was added at 10 μL/well, and the plates were centrifuged at […] for 1 min to stop the reaction. • 6. The mixtures in the reaction plates were transferred at 25 μL/well to new plates (Streptavidin FlashPlate HTS PLUS, High Capacity, 384-well). • 7. The plates were incubated at room temperature for at least 60 min and then • 8. read using MicroBeta2.
(§5) Raw data were obtained in EXCEL, and the inhibition rates were calculated:
(§6) [formula] [formula] • Max signal: reaction signal from enzyme and substrate; • Sample signal: signal from sample; • Min signal: signal from substrate only (negative control).
(§7) The inhibition rate data were imported into XLFit Excel, and IC50 values were obtained using formula (2):
(§8) [formula] [formula] • Top: value of the top plateau of the fitted regression curve; • Bottom: value of the bottom plateau of the fitted regression curve; • HillSlope: slope of the fitted regression curve.
(§9) The IC50 value was substituted into formula (3) to obtain the enzymatic activity inhibition constant Ki:
(§10) [formula] • [S]: substrate concentration; Km: Michaelis constant.

The target of the next series is T2, KAT6B (Homo sapiens, UniProt Q8WYB5).
T2 construct: purchased ACTIVE MOTIF 81224
Put plainly: Inhibition of human KAT enzymes, radioisotope method: KAT6B. The conditions noted are these: KAT6B (718-1008). It counts as biochemical.
Text: as §1, §2, §3, §4, §5, §6, §7, §8, §9, §10

Another series concerns the target T3, KAT5 (Homo sapiens, UniProt Q92993).
T3 construct: purchased BPS 79422
Put plainly: Inhibition of human KAT enzymes, radioisotope method: KAT5. The series is classed as biochemical. The conditions noted are these: for Ki: KAT5 (full-length), radioisotope method; for KAT5/ KAT6A / KAT5/ KAT6B: selectivity, ratio of Ki.
Text: as §1, §2, §3, §4, §5, §6, §7, §8, §9, §10

The next series concerns the target T4, KAT7 (Homo sapiens, UniProt O95251).
T4 construct: purchased ACTIVE MOTIF 31889
Put plainly: Inhibition of human KAT enzymes, radioisotope method: KAT7. The series is classed as biochemical. The conditions noted are these: for Ki: KAT7 (full-length), radioisotope method; for KAT7/ KAT6A / KAT7/ KAT6B: selectivity, ratio of Ki.
Text: as §1, §2, §3, §4, §5, §6, §7, §8, §9, §10

A short description of series [1]: Pharmacokinetics in SD (Sprague Dawley) rats. The series is classed as in vivo. The settings on record: rat, plasma, female SD rats; for clearance: read-out: CL (clearance rate); for half-life: read-out: T1/2 (half-life) (converted); for Vd: read-out: Vdss (apparent volume of distribution); for bioavailability: read-out: F (bioavailability). Here is the method:
Test Example 3: Determination of Pharmacokinetic Data of Compounds in SD (Sprague Dawley) Rats
The pharmacokinetic characteristics of some of the compounds of the present disclosure were evaluated by a pharmacokinetic experiment in SD rats.
Female SD rats aged 6-8 weeks from Shanghai Jihui Laboratory Animal Care Co., Ltd. were selected. The test animals were fasted overnight before administration, and feeding was resumed 4 h after administration. The compounds were dissolved in 5% DMSO+5% Tween 80+90% normal saline. For a single intravenous administration, the administration dose was 1 mg/kg, and the administration volume was 2 mL/kg. For a single intragastric administration, the administration dose was 2 mg/kg, and the administration volume was 10 mL/kg. Blood was collected at 0.083 h (for intravenous administration only), 0.25 h, 0.5 h, 1 h, 2 h, 4 h, 8 h, and 24 h after administration. At each indicated time point, about 150 μL of blood sample was collected from each rat via the vein and placed into an EDTA-K2 tube. Each sample was centrifuged (2000 g, 4° C., 5 min) within 15 min after sample collection to obtain plasma, which was then stored at −70° C. until analysis. The concentration of the corresponding test compound in the SD rat plasma was determined using UPLC-MS/MS.

Read-outs that look alike come from different tables or passages of the source.

T3 sequence (Q92993 whole entry): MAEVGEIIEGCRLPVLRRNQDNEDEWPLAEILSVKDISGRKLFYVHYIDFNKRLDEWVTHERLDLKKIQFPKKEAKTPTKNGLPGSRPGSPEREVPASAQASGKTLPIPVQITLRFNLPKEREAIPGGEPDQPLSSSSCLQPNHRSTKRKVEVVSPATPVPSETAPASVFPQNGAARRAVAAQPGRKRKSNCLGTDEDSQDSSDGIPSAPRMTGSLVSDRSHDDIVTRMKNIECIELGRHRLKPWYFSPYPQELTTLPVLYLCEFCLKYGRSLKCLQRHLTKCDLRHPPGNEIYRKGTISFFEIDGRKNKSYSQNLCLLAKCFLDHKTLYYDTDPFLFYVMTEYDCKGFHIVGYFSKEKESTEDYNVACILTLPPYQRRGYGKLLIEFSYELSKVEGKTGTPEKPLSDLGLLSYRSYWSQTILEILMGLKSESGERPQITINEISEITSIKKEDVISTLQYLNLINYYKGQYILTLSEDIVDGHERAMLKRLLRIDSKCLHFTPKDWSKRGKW
T4 sequence (O95251 whole entry): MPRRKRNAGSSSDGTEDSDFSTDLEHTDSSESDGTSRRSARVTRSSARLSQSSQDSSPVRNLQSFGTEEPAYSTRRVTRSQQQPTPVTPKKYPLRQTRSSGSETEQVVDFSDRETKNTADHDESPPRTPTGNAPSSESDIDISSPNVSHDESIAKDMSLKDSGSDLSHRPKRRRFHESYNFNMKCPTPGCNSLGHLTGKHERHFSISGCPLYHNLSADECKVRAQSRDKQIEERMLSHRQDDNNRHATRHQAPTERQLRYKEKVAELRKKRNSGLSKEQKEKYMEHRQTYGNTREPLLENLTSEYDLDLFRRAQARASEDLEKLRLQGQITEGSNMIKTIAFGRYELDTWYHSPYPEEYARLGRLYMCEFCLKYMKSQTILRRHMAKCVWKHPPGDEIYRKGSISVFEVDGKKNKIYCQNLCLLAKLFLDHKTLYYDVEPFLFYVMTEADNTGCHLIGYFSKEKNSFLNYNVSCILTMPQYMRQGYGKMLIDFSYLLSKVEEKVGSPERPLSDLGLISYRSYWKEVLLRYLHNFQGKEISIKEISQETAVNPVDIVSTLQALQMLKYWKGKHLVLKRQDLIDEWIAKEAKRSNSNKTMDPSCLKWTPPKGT
T2 sequence (Q8WYB5 whole entry): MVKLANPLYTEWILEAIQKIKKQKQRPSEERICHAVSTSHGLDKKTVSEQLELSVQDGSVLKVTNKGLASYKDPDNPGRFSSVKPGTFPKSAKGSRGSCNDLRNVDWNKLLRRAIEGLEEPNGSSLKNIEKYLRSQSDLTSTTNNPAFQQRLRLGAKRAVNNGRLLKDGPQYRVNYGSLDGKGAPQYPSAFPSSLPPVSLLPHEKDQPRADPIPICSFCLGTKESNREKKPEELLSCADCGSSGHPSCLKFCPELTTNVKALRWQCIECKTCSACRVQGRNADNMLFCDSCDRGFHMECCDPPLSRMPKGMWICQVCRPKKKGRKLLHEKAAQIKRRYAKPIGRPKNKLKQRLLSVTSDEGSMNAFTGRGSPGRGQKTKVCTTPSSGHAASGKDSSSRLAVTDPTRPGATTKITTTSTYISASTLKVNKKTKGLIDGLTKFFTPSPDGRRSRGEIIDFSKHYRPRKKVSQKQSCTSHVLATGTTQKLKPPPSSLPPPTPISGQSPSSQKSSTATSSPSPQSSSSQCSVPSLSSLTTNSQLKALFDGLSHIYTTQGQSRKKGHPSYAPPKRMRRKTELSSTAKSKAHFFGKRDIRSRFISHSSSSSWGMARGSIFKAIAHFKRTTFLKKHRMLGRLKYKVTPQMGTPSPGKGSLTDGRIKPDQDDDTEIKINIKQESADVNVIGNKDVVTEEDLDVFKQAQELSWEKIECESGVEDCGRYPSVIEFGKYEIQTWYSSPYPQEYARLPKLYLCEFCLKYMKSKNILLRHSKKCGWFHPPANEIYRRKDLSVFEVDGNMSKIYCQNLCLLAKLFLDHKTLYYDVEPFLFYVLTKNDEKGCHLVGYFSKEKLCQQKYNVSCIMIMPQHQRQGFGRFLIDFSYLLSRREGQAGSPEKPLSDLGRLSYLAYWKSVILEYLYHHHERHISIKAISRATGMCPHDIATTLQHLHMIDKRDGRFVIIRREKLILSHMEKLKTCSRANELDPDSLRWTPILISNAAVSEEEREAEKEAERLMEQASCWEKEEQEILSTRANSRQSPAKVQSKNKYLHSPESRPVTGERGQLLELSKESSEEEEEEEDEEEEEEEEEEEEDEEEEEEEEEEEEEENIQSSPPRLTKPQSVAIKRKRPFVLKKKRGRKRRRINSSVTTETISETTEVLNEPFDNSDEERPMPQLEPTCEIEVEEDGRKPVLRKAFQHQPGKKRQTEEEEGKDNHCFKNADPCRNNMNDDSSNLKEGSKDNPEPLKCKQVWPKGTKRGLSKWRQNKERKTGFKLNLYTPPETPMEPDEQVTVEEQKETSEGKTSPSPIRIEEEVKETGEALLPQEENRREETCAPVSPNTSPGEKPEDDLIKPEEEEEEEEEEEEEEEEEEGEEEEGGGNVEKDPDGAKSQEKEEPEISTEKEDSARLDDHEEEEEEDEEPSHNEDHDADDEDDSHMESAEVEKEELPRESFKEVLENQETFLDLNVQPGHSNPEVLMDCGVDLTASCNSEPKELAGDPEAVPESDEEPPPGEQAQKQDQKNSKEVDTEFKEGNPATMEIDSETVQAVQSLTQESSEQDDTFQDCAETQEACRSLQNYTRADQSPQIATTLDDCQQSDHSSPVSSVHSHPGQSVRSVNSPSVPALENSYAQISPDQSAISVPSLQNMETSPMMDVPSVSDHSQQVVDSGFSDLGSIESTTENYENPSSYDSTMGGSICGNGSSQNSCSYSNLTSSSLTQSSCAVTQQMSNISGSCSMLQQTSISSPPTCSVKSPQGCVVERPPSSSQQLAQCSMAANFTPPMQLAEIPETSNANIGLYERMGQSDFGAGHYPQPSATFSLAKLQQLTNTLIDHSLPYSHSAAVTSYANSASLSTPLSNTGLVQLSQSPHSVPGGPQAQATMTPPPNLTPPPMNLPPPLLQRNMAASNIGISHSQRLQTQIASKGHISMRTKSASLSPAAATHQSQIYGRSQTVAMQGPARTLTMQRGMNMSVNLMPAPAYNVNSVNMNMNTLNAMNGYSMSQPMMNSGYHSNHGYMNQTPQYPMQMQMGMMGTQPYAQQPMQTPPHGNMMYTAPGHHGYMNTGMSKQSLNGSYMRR

What is called Ki is a dissociation constant, usually derived from enzyme kinetics or from competition with a known ligand. High values mean weaker binding, low ones tighter binding. As usually defined, the AUC(0-inf) is the area under the concentration-time curve extrapolated to infinity. Usually clearance stands for the volume of plasma or blood freed of the substance per unit of time. As for `COc1ccc2c(c1S(=O)(=O)Nc1noc3cc(Cn4cccn4)c(F)c(OC)c13)OCCCO2` [Compound 114, N-(6-((1H-Pyrazol-1-yl)methyl)-5-fluoro-4-methoxybenzo[d]isoxazol-3-yl)-7-methoxy-3,4-dihydro-2H-benzo[b][1,4]dioxepine-6-sulfonamide], on KAT6A, the affinity corresponds to a Ki of 0.38 nM. The same compound registered a Ki at KAT6B of 2.49 nM. At KAT5, the Ki turned out to be 1850 nM, the “KAT5/ KAT6A” value is 4880 and the “KAT5/ KAT6B” value was 745. Moreover, at KAT7, the Ki is 174 nM, the “KAT7/ KAT6A” value turned out to be 458 and the “KAT7/ KAT6B” value is 70. For the same compound, in series [1] (iv, i.v. 1 mg/kg), the AUC(0-inf) came to 39.2 µg·h/mL, the clearance came out at 0.0277 L/h/kg, the half-life is 17.2 h and the Vd is 0.608 L/kg. In series [1] (po, p.o. 2 mg/kg), the AUC(0-inf) worked out at 97.9 µg·h/mL, the bioavailability turned out to be 144% and the half-life is 13 h.

For the compound `COc1ccc2c(c1S(=O)(=O)Nc1noc3cc(Cn4cccn4)c(F)c(OC)c13)OCC=C2` [Compound 101, N-(6-((1H-Pyrazol-1-yl)methyl)-5-fluoro-4-methoxybenzo[d]isoxazol-3-yl)-7-methoxy-2H-chromene-8-sulfonamide], the affinity on KAT6A, expressed as Ki, was 0.21 nM. In addition, at KAT6B, the affinity, expressed as Ki, was 0.65 nM. Besides, at KAT5, affinity was put at a Ki of 79.6 nM, the “KAT5/ KAT6A” value is listed as 379 and the “KAT5/ KAT6B” value came out at 122. Also, at KAT7, the Ki was 7.39 nM, the “KAT7/ KAT6A” value was determined as 35 and the “KAT7/ KAT6B” value is given as 11. For the same compound, in series [1] (iv, i.v. 1 mg/kg), the AUC(0-inf) turned out to be 48.1 µg·h/mL, the clearance amounted to 0.021 L/h/kg, the half-life is 8.88 h and the Vd is 0.237 L/kg. In series [1] (po, p.o. 2 mg/kg), the AUC(0-inf) was 89.1 µg·h/mL, the bioavailability came to 92.5% and the half-life was 9.21 h.

In turn, `COc1ccc2c(c1S(=O)(=O)Nc1noc3cc(Cn4cccn4)c(F)c(OC)c13)OCCN2C` [Compound 109, N-(6-((1H-Pyrazol-1-yl)methyl)-5-fluoro-4-methoxybenzo[d]isoxazol-3-yl)-7-methoxy-4-methyl-3,4-dihydro-2H-benzo[b][1,4]oxazine-8-sulfonamide] registered a Ki on KAT6A of 0.47 nM. Affinity on KAT6B was put at a Ki of 0.9 nM. On KAT5, the Ki is 286 nM, the “KAT5/ KAT6A” value is reported as 609 and the “KAT5/ KAT6B” value came to 318. For the same compound, at KAT7, the affinity corresponds to a Ki of 54.7 nM, the “KAT7/ KAT6A” value was 116 and the “KAT7/ KAT6B” value is 61. In series [1] (iv, i.v. 1 mg/kg), the AUC(0-inf) worked out at 90.7 µg·h/mL, the clearance was found to be 0.0111 L/h/kg, the half-life was 8.57 h and the Vd was found to be 0.119 L/kg. In addition, in series [1] (po, p.o. 2 mg/kg), the AUC(0-inf) worked out at 187 µg·h/mL, the bioavailability was 96% and the half-life was 9.73 h.

In the case of `COc1ccc2c(c1S(=O)(=O)Nc1noc3cc(Cn4cccn4)c(F)c(OC)c13)OCCC2=O` [Compound 42, N-(6-((1H-Pyrazol-1-yl)methyl)-5-fluoro-4-methoxybenzo[d]isoxazol-3-yl)-7-methoxy-4-oxochromane-8-sulfonamide], in series [1] (iv, i.v. 1 mg/kg), the AUC(0-inf) is 10.2 µg·h/mL, the clearance came out at 0.101 L/h/kg, the half-life is 3.79 h and the Vd is 0.261 L/kg. In series [1] (po, p.o. 2 mg/kg), the AUC(0-inf) is 11.3 µg·h/mL, the bioavailability was found to be 55% and the half-life is 3.31 h.

Consider `COc1ccc2c(c1S(=O)(=O)Nc1noc3cc(Cn4cccn4)c(F)c(OC)c13)OCCCN2C` [Compound 115, N-(6-((1H-Pyrazol-1-yl)methyl)-5-fluoro-4-methoxybenzo[d]isoxazol-3-yl)-8-methoxy-5-methyl-2,3,4,5-tetrahydrobenzo[b][1,4]oxazepine-9-sulfonamide], for which, at KAT6A, the Ki amounted to 0.63 nM. This compound also returned a Ki on KAT6B of 6.48 nM. In addition, at KAT5, the Ki was found to be 5040 nM, the “KAT5/ KAT6A” value was found to be 7998 and the “KAT5/ KAT6B” value was 778. Also, on KAT7, the affinity corresponds to a Ki of 493 nM, the “KAT7/ KAT6A” value is listed as 782 and the “KAT7/ KAT6B” value amounted to 76. In addition, in series [1] (iv, i.v. 1 mg/kg), the AUC(0-inf) is 47.5 µg·h/mL, the clearance was determined as 0.0218 L/h/kg, the half-life is 14.3 h and the Vd was determined as 0.408 L/kg. Besides, in series [1] (po, p.o. 2 mg/kg), the area under the curve AUC(0-inf) is 109 µg·h/mL, the bioavailability is 105% and the half-life was 15.9 h.

Regarding `COc1ccccc1S(=O)(=O)Nc1noc2cc(Cn3cccn3)cc(OC)c12` [PF-8144, reference compound], on KAT6A, the inhibition constant Ki came to 0.58 nM. For the same compound, the Ki on KAT6B was found to be 5.18 nM. Further, on KAT5, the affinity corresponds to a Ki of 672 nM, the “KAT5/ KAT6A” value is 1159 and the “KAT5/ KAT6B” value amounted to 130. On KAT7, the Ki was found to be 85.7 nM, the “KAT7/ KAT6A” value was determined as 148 and the “KAT7/ KAT6B” value came to 17. Further, in series [1] (iv, i.v. 1 mg/kg), the total exposure AUC(0-inf) stood at 28.3 µg·h/mL, the clearance was 0.0358 L/h/kg, the half-life is 3.16 h and the Vd was found to be 0.143 L/kg. Further, in series [1] (po, p.o. 2 mg/kg), the AUC(0-inf) turned out to be 55.5 µg·h/mL, the bioavailability came out at 98% and the half-life was 3.79 h.

Compound `COc1ccc2c(c1S(=O)(=O)Nc1noc3cc(Cn4cccn4)c(F)c(OC)c13)OCCO2` [Compound 28, N-(6-((1H-Pyrazol-1-yl)methyl)-5-fluoro-4-methoxybenzo[d]isoxazol-3-yl)-6-methoxy-2,3-dihydrobenzo[b][1,4]dioxine-5-sulfonamide] displayed a Ki on KAT6A of 0.2 nM. Moreover, the Ki on KAT6B stood at 0.9 nM. On KAT5, the Ki was 649 nM, the “KAT5/ KAT6A” value stood at 3243 and the “KAT5/ KAT6B” value came to 721. Further, on KAT7, affinity was put at a Ki of 40.6 nM, the “KAT7/ KAT6A” value is listed as 203 and the “KAT7/ KAT6B” value was determined as 45. Also, in series [1] (iv, i.v. 1 mg/kg), the AUC(0-inf) amounted to 22.6 µg·h/mL, the clearance came out at 0.0457 L/h/kg, the half-life is 5.87 h and the Vd turned out to be 0.295 L/kg. In addition, in series [1] (po, p.o. 2 mg/kg), the area under the curve AUC(0-inf) was determined as 42.8 µg·h/mL, the bioavailability was 94.7% and the half-life was 6.73 h.
